Assays:
Assay in all cases: preemergence treatment in the greenhouse, % damage
Gossyp. hirs. = type: in vivo, Gosspyium hirsutum
Text: (§1) The vessels employed were plastic flowerpots having a volume of 300 cm^3; the substrate was a sandy loam containing about 1.5% humus. The seeds of the test plants (see Table 1) were sown shallow, and separated according to species. In the case of Cyperus esculentus, pregerminated tubers were planted. In the preemergence treatment, the active ingredients were then immediately applied to the surface of the soil. They were suspended or emulsified in water as the vehicle, and sprayed through atomizing nozzles. After the agents had been applied, the vessels were lightly sprinkler-irrigated to set germination and growth going, and to activate the chemical agents. The vessels were then covered with transparent plastic hoods until the plants had taken root. This cover ensured uniform germination of the test plants (to the extent that this was not impaired by the chemicals), and prevented readily volatile substances from evaporating.
(§2) For postemergence treatment, the plants were first grown to a height of from 3 to 10 cm, depending on their habit, before treated. Hoods were not placed on the pots. The experiments were set up in the greenhouse, hotter areas (25° to 40° C.) being preferred for heat-loving species, and 15° to 30° C. for plants from moderate climates. The experiments were carried out for from 4 to 6 weeks. During this period the plants were tended and their reaction to the various treatments was assessed. The following tables contain the substances investigated, the application rates in kg/ha of active ingredient, and the test plant species. Assessments were made on a 0 to 100 scale, 0 denoting no damage or normal emergence, and 100 denoting no emergence or complete destruction of at least the visible plant parts.

Glyc. max = type: in vivo, Glycine max
Text: as §1, §2

Setaria spp. = type: in vivo
Text: as §1, §2

Echin. c.g. = type: in vivo
Text: as §1, §2

Euph. gen. = type: in vivo
Text: as §1, §2

Cyp. diff. = type: in vivo
Text: as §1, §2

Stell. med. = type: in vivo
Text: as §1, §2

Amar. retro. = type: in vivo
Text: as §1, §2

Matric. spp. = type: in vivo
Text: as §1, §2

Sorgh. halep. = type: in vivo
Text: as §1, §2

Alopec. myosur. = type: in vivo
Text: as §1, §2

Beta vulg. = type: in vivo, Beta vulgaris
Text: as §1, §2

Sorgh. bicol. = type: in vivo, Sorghum bicolor
Text: as §1, §2

Zea mays = type: in vivo
Text: as §1, §2

Structure (SMILES)	% damage (Gossyp. hirs.; 0.5 kg/ha)	% damage (Gossyp. hirs.; 1.0 kg/ha)	% damage (Glyc. max; 1.0 kg/ha)	% damage (Setaria spp.; 0.5 kg/ha)	% damage (Setaria spp.; 1.0 kg/ha)	% damage (Echin. c.g.; 0.5 kg/ha)	% damage (Echin. c.g.; 1.0 kg/ha)	% damage (Euph. gen.; 0.5 kg/ha)	% damage (Euph. gen.; 1.0 kg/ha)	% damage (Cyp. diff.; 0.5 kg/ha)	% damage (Cyp. diff.; 1.0 kg/ha)	% damage (Amar. retro.; 1.0 kg/ha)	% damage (Alopec. myosur.; 1.0 kg/ha)	% damage (Beta vulg.; 2.0 kg/ha)	% damage (Sorgh. bicol.; 2.0 kg/ha)	% damage (Glyc. max; 2.0 kg/ha)	% damage (Setaria spp.; 2.0 kg/ha)	% damage (Zea mays; 2.0 kg/ha)	% damage (Amar. retro.; 2.0 kg/ha)	% damage (Alopec. myosur.; 2.0 kg/ha)	other results
Cc1ccc(C)c(N(Cn2cccn2)C(=O)CCl)c1C [Compound 14]	0%	15%	20%	100%	100%	100%	100%	95%	95%	100%	100%	100%	100%								% damage (Gossyp. hirs.; 0.25 kg/ha): 0%; % damage (Glyc. max; 0.25 kg/ha): 10%; % damage (Glyc. max; 0.5 kg/ha): 10%; % damage (Setaria spp.; 0.25 kg/ha): 100%; % damage (Echin. c.g.; 0.25 kg/ha): 100%; % damage (Euph. gen.; 0.25 kg/ha): 80%; % damage (Cyp. diff.; 0.25 kg/ha): 100%; % damage (Stell. med.; 0.25 kg/ha): 90%; % damage (Stell. med.; 0.5 kg/ha): 100%; % damage (Stell. med.; 1.0 kg/ha): 100%; % damage (Amar. retro.; 0.25 kg/ha): 100%; % damage (Amar. retro.; 0.5 kg/ha): 100%; % damage (Matric. spp.; 0.25 kg/ha): 80%; % damage (Matric. spp.; 0.5 kg/ha): 100%; % damage (Matric. spp.; 1.0 kg/ha): 100%; % damage (Sorgh. halep.; 0.25 kg/ha): 95%; % damage (Sorgh. halep.; 0.5 kg/ha): 95%; % damage (Sorgh. halep.; 1.0 kg/ha): 100%; % damage (Alopec. myosur.; 0.25 kg/ha): 95%; % damage (Alopec. myosur.; 0.5 kg/ha): 100%
Cc1ccn(CN(C(=O)CCl)c2ccccc2C(C)C)n1 [Compound 72]			10%		90%							95%	100%	10%	40%	20%	95%	10%	95%	100%	% damage (Beta vulg.; 1.0 kg/ha): 10%; % damage (Sorgh. bicol.; 1.0 kg/ha): 20%; % damage (Zea mays; 1.0 kg/ha): 0%
Cc1ccc(C)c(N(Cn2cncn2)C(=O)CCl)c1C [Compound 136]	10%	10%		90%	100%	95%	95%	45%	65%	90%	90%	70%	90%								% damage (Stell. med.; 0.5 kg/ha): 30%; % damage (Stell. med.; 1.0 kg/ha): 80%; % damage (Amar. retro.; 0.5 kg/ha): 70%; % damage (Matric. spp.; 0.5 kg/ha): 50%; % damage (Matric. spp.; 1.0 kg/ha): 90%; % damage (Sorgh. halep.; 0.5 kg/ha): 80%; % damage (Sorgh. halep.; 1.0 kg/ha): 80%; % damage (Alopec. myosur.; 0.5 kg/ha): 50%
Cc1ccc(Cl)cc1N(Cn1cccn1)C(=O)CCl [Compound 24]														60%	10%	10%	85%	0%	95%	100%	
CCc1cccc(C)c1N(Cn1nc(C)c(Cl)c1C)C(=O)CCl [Compound 107]														0%	85%	0%	95%	0%	95%	95%	

Reference: patent publication US4593104A, “2-halo-N-(azole-1-yl-methyl)-substituted acetanilides” (BASF Aktiengesellschaft, priority 1976, dated 1986)
